# Read-outs that look alike come from different tables or passages of the source.
# Columns and labels:
# H1047R PIK3CA enzyme = H1047R PIK3CA enzyme (Homo sapiens, UniProt P42336, H1047R); test: ADP-Glo Biochemical PIK3CA Kinase Assay
# cells = details: Homo sapiens, MCF-10A, read-out: MCF10A I50
# [1] = ADP-Glo biochemical PIK3CA kinase assay
# Chain of H1047R PIK3CA enzyme (P42336 whole entry H1047R): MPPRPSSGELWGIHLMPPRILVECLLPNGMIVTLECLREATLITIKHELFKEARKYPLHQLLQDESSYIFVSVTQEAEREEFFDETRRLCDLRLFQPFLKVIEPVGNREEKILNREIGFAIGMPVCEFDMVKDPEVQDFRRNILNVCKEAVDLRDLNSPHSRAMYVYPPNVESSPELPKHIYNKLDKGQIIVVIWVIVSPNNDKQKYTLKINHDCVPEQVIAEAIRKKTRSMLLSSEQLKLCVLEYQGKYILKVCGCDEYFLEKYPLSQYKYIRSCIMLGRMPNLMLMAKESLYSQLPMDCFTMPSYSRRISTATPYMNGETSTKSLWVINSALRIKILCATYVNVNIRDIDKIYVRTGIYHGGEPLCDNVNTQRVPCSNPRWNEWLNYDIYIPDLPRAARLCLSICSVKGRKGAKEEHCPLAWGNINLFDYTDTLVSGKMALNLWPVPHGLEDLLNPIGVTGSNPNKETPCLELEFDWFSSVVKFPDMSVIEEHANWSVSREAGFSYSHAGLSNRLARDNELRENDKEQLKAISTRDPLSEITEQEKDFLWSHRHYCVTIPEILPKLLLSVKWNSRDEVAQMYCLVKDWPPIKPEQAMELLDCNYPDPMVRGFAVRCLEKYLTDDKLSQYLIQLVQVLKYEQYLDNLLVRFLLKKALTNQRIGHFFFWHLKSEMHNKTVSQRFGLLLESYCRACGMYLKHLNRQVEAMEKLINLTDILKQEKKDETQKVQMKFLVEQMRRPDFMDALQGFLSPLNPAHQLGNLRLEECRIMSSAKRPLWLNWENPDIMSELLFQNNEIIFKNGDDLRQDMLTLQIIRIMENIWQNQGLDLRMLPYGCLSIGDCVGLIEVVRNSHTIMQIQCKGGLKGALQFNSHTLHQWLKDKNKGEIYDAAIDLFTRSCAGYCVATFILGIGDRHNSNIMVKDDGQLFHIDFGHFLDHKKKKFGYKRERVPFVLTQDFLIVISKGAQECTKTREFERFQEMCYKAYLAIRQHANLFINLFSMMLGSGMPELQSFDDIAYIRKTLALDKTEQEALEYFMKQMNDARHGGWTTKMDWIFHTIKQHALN
# Chain of H1047R PIK3CA enzyme (P27986 whole entry partner): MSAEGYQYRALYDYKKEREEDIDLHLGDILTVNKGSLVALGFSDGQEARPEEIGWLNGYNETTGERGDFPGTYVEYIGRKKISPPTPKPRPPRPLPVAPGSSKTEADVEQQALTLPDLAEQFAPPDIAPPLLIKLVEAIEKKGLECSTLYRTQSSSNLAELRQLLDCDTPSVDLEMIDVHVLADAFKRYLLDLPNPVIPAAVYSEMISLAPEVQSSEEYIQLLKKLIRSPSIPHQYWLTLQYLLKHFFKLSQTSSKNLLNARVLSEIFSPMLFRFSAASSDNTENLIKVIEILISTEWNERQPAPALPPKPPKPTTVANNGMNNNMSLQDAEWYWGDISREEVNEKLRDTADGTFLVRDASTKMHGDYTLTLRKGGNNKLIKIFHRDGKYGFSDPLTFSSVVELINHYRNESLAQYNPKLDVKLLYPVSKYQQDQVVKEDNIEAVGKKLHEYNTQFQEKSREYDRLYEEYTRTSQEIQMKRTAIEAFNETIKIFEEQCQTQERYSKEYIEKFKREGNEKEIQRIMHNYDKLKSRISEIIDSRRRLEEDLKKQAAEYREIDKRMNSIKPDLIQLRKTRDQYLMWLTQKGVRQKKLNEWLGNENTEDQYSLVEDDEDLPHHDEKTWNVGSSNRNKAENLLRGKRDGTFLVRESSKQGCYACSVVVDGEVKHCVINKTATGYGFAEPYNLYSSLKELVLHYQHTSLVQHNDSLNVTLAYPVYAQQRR
Structure (SMILES),IC50 (H1047R PIK3CA enzyme) [µM],IC50 (cells) [µM],IC50 (H1047R PIK3CA enzyme; [1]) [µM]
Cc1ccccc1Nc1ncc(C(=O)N[C@H]2C[C@@H](O)C2)cc1NC(=O)c1csc2ccccc12 [I-397],≤ 0.1,5 to 10,–
CCOc1ccccc1Nc1ncc(C(=O)NC)cc1NC(=O)c1cc(F)cc(C(F)(F)F)c1 [I-288],10 to 100,36 to 100,–
CNC(=O)c1cnc(Nc2cccc(C(C)(C)C)c2)c(NC(=O)c2cc(F)cc(C(F)(F)F)c2)c1 [I-297],1 to 10,36 to 100,–
CNC(=O)c1cnc(Nc2cccc(Cl)c2)c(NC(=O)c2cc(F)cc(C(F)(F)F)c2)c1 [I-287],1 to 10,36 to 100,–
O=C(NC1CC(F)(F)C1)c1cnc(N2CCOc3ccccc32)c(NC(=O)c2csc3ccccc23)c1 [I-347],0.1 to 0.5,1 to 5,–
C[C@@H](NC(=O)c1cnc(N2CCOc3ccccc32)c(NC(=O)c2csc3ccccc23)c1)c1ccccn1 (racemic) [I-337],0.1 to 0.5,5 to 10,–
Cc1ccccc1Nc1ncc(C(=O)NCC(=O)N2CCCC2)cc1NC(=O)c1csc2ccccc12 [I-597],–,36 to 100,1 to 10
CNC(=O)c1cnc(Nc2ccccc2C)c(NC(=O)c2cccc3[nH]c(C(F)(F)F)nc23)c1 [I-530],–,10 to 36,0.1 to 0.5
Cc1ccccc1Nc1ncc(C(=O)NC(C)c2ccccc2)cc1NC(=O)c1csc2ccccc12 (centres unmarked) [I-197],≤ 0.1,10 to 36,–
CNC(=O)c1cnc(NC2CCOc3ccc(F)cc32)c(NC(=O)c2csc3ccccc23)c1 (centres unmarked) [I-745],–,5 to 10,0.1 to 0.5
Cn1nccc1CNC(=O)c1cnc(N2CCCc3ccccc32)c(NC(=O)c2cc(F)cc(C(F)(F)F)c2)c1 [I-210],1 to 10,36 to 100,–
Cc1ccccc1Nc1ncc(C(=O)NCc2cnc3c(C)cccn23)cc1NC(=O)c1csc2ccccc12 [I-561],–,10 to 36,0.1 to 0.5
Cc1ccccc1Nc1ncc(C(=O)NCc2cnn(C)c2)cc1NC(=O)c1cc(F)cc(C(F)(F)F)c1 [I-53],0.1 to 0.5,5 to 10,–
Cc1ccccc1Nc1ncc(C(=O)N[C@H]2C[C@@H](O)C2)cc1NC(=O)c1cc(F)cc(C(F)(F)F)c1 [I-395],0.1 to 0.5,1 to 5,–
O=C(NCCN1CCOCC1)c1cnc(N2CCOc3ccccc32)c(NC(=O)c2csc3ccccc23)c1 [I-316],1 to 10,36 to 100,–
C[C@]1(O)C[C@@H](NC(=O)c2cnc(N3CCOc4ccccc43)c(NC(=O)c3csc4ccccc34)c2)C1 [I-317],0.1 to 0.5,5 to 10,–
CNC(=O)c1ccc(-c2cnc(Nc3ccccc3C)c(NC(=O)c3cc(F)cc(C(F)(F)F)c3)c2)cc1 [I-84],1 to 10,5 to 10,–
Cc1ccccc1Nc1ncc(C(=O)NC2(C(N)=O)CC2)cc1NC(=O)c1csc2ccccc12 [I-612],–,< 1,0.1 to 0.5
CNC(=O)c1cnc(Nc2ccc(F)cc2)c(NC(=O)c2cc(F)cc(C(F)(F)F)c2)c1 [I-285],0.5 to 1,10 to 36,–
COc1cc(CCNC(=O)c2cnc(Nc3ccccc3C)c(NC(=O)c3csc4ccccc34)c2)ccn1 [I-598],–,5 to 10,0.1 to 0.5
Cc1ccccc1Nc1ncc(C(=O)NCC2(C#N)CC2)cc1NC(=O)c1cc(F)cc(C(F)(F)F)c1 [I-750],–,5 to 10,0.1 to 0.5
Cc1ccccc1Nc1cc(=O)[nH]cc1NC(=O)c1csc2ccccc12 [I-308],1 to 10,36 to 100,–
Cc1ccccc1Nc1ncccc1NC(=O)c1cc(F)cc(C(F)(F)F)c1 [I-11],1 to 10,10 to 36,–

Structure (SMILES),IC50 (H1047R PIK3CA enzyme) [µM],IC50 (cells) [µM],IC50 (H1047R PIK3CA enzyme; [1]) [µM]
CNC(=O)c1cnc(Nc2ccccc2C)c(NC(=O)c2csc3ccccc23)c1 [I-41],0.1 to 0.5,10 to 36,–
CNC(=O)c1cnc(Nc2ccccc2C)c(NC(=O)c2csc3ccc(F)cc23)c1 [I-150],0.1 to 0.5,5 to 10,–
Cc1ccccc1Nc1ncc(C(=O)NC2CCCS(=O)(=O)C2)cc1NC(=O)c1cc(F)cc(C(F)(F)F)c1 (centres unmarked) [I-246],0.1 to 0.5,< 1,–
Cc1ccccc1Nc1ncc(C(=O)NCc2ccon2)cc1NC(=O)c1csc2ccccc12 [I-560],–,1 to 5,≤ 0.1
Cc1ccccc1Nc1ncc(C(=O)NCC2(S(C)(=O)=O)CCC2)cc1NC(=O)c1csc2ccccc12 [I-608],–,10 to 36,0.5 to 1
Cc1cc(CNC(=O)c2cnc(Nc3ccccc3C)c(NC(=O)c3csc4ccccc34)c2)no1 [I-604],–,1 to 5,≤ 0.1
Cc1ccccc1Nc1ncc(C(=O)N[C@H]2C[C@H](O)C2)cc1NC(=O)c1csc2ccccc12 [I-399],–,1 to 5,≤ 0.1
Cc1ccccc1Nc1ncc(C(=O)N[C@@H]2CC[C@@H](O)C2)cc1NC(=O)c1csc2ccccc12 [I-626],–,1 to 5,0.1 to 0.5
Cc1ccccc1Nc1ncc(-c2cncc(C#N)c2)cc1NC(=O)c1cc(F)cc(C(F)(F)F)c1 [I-75],0.1 to 0.5,1 to 5,–
CNC(=O)c1cnc(Nc2ccccc2C)c(NC(=O)c2csc3c2CCOC3)c1 [I-402],–,10 to 36,1 to 10
CNC(=O)c1cnc(Nc2ccccc2C)c(NC(=O)c2cc(C)nc(C(F)(F)F)c2)c1 [I-765],–,1 to 5,0.1 to 0.5
CNC(=O)c1cnc(Nc2ccccc2C)c(NC(=O)c2csc3ccc(OC)cc23)c1 [I-409],–,10 to 36,1 to 10
CNC(=O)c1cnc(Nc2ccccc2C)c(NC(=O)c2cc(Cl)cc(Cl)c2)c1 [I-6],0.5 to 1,5 to 10,–
CNC(=O)c1cnc(N)c(NC(=O)c2csc3ccccc23)c1 [I-676],–,10 to 36,0.5 to 1
Cc1ccccc1Nc1ncc(C(=O)NCc2ccncn2)cc1NC(=O)c1csc2ccccc12 [I-572],–,< 1,0.1 to 0.5
Cc1ccccc1Nc1ncc(C(=O)N[C@H]2COc3ccccc3C2)cc1NC(=O)c1csc2ccccc12 [I-619],–,36 to 100,0.1 to 0.5
"Cc1ccccc1Nc1nc2ccccc2cc1NC(=O)N1CC(O)c2ccccc21 (centres unmarked) [I-828, 3-hydroxy-N-(2-(o-tolylamino)quinolin-3-yl)indoline-1-carboxamide]",0.5 to 1,5 to 10,–
Cc1ccccc1Nc1ncc(C(=O)NCc2nccs2)cc1NC(=O)c1cc(F)cc(C(F)(F)F)c1 [I-65],0.1 to 0.5,1 to 5,–
Cc1ccccc1Nc1ncc(C(=O)N[C@H]2CCC(F)(F)C[C@@H]2O)cc1NC(=O)c1csc2ccccc12 [I-571],–,1 to 5,0.1 to 0.5
Cc1ccccc1Nc1ncc(C(=O)NCCS(C)(=O)=O)cc1NC(=O)c1cc(F)cc(C(F)(F)F)c1 [I-219],0.1 to 0.5,1 to 5,–
Cc1ccccc1Nc1ncc(CNS(=O)(=O)c2ccccc2)cc1NC(=O)c1cc(F)cc(C(F)(F)F)c1 [I-307],0.1 to 0.5,1 to 5,–
Cc1ccccc1Nc1ncc(C(=O)NCc2ccc(Cl)cc2)cc1NC(=O)c1csc2ccccc12 [I-191],0.1 to 0.5,1 to 5,–
COC(=O)Cn1cc(NC(=O)c2csc3ccccc23)c(Nc2ccccc2C)cc1=O [I-309],1 to 10,36 to 100,–

Structure (SMILES),IC50 (H1047R PIK3CA enzyme) [µM],IC50 (cells) [µM],IC50 (H1047R PIK3CA enzyme; [1]) [µM]
Cc1ccn2c(CNC(=O)c3cnc(Nc4ccccc4C)c(NC(=O)c4csc5ccccc45)c3)nnc2c1 [I-625],–,10 to 36,0.1 to 0.5
O=C(NC1(c2cccnc2)CC1)c1cnc(N2CCOc3ccccc32)c(NC(=O)c2csc3ccccc23)c1 [I-256],0.1 to 0.5,1 to 5,–
CNC(=O)c1cnc(Nc2nc(C)c(C)s2)c(NC(=O)c2cc(F)cc(C(F)(F)F)c2)c1 [I-301],0.5 to 1,10 to 36,–
Cc1ccccc1Nc1cc(=O)n(CC(=O)O)cc1NC(=O)c1csc2ccccc12 [I-310],10 to 100,36 to 100,–
Cc1cc(NC(=O)c2cnc(Nc3ccccc3C)c(NC(=O)c3cc(F)cc(C(F)(F)F)c3)c2)n[nH]1 [I-232],0.1 to 0.5,1 to 5,–
Cc1ccccc1Nc1ncc(C(=O)NC2CS(=O)(=O)C2)cc1NC(=O)c1csc2ccccc12 [I-136],≤ 0.1,1 to 5,–
Cc1ccccc1Nc1ncc(C(=O)NC2CCS(=O)(=O)C2)cc1NC(=O)c1cc(F)cc(C(F)(F)F)c1 (centres unmarked) [I-247],0.1 to 0.5,< 1,–
Cc1ccccc1Nc1ncc(C(N)=O)cc1NC(=O)c1cc(F)cc(C(F)(F)F)c1 [I-28],0.5 to 1,5 to 10,–
CNC(=O)c1cnc(Nc2ccccc2C)c(NC(=O)c2cc3c(Cl)ccnc3[nH]2)c1 [I-424],–,36 to 100,10 to 100
CNC(=S)c1cnc(Nc2ccccc2C)c(NC(=O)c2csc3ccccc23)c1 [I-412],–,10 to 36,0.1 to 0.5
Cc1ccccc1Nc1ncc(C(=O)NC2CCC(F)(F)C2)cc1NC(=O)c1csc2ccccc12 (centres unmarked) [I-544],–,10 to 36,0.1 to 0.5
Cc1ccccc1Nc1ncc(C(=O)Nc2cn(C)cn2)cc1NC(=O)c1csc2ccccc12 [I-508],–,10 to 36,0.1 to 0.5
CNC(=O)c1cnc(Nc2ccccc2C)c(NC(=O)C2(c3ccccc3Cl)CC2)c1 [I-499],–,10 to 36,≤ 0.1
Cc1ccccc1Nc1ncc(C(=O)NCc2cccnc2)cc1NC(=O)c1csc2ccccc12 [I-193],0.1 to 0.5,5 to 10,–
COc1cnccc1CCNC(=O)c1cnc(Nc2ccccc2C)c(NC(=O)c2csc3ccccc23)c1 [I-515],–,10 to 36,0.1 to 0.5
Cc1ccccc1Nc1ncc(C(=O)NC2CCOCC2)cc1NC(=O)c1csc2ccccc12 [I-584],–,5 to 10,0.1 to 0.5
Cc1ccccc1Nc1ncc(C2CC2)cc1NC(=O)c1cc(F)cc(C(F)(F)F)c1 [I-21],1 to 10,10 to 36,–
Cc1ccccc1Nc1ncc(C(=O)N[C@@H]2CCO[C@@H]2C)cc1NC(=O)c1csc2ccccc12 [I-594],–,5 to 10,0.1 to 0.5
CC(NC(=O)c1cnc(N)c(NC(=O)c2csc3ccccc23)c1)c1nnc2ccccn12 (centres unmarked) [I-691],–,5 to 10,0.1 to 0.5
Cc1ccccc1Nc1ncc(NC(=O)OC(C)(C)C)cc1NC(=O)c1cc(F)cc(C(F)(F)F)c1 [I-54],1 to 10,10 to 36,–
CNC(=O)c1cnc(Nc2ccccc2C)c(NC(=O)c2csc3ccc(Cl)cc23)c1 [I-149],0.1 to 0.5,10 to 36,–
